This is an account of results in patent US20230348398A1 (Hoffmann-La Roche Inc., priority 2020, published 2023).

This assay deals with human cGAS (residues 161-522) (Homo sapiens (Human), UniProt Q8N884). The assay is described as follows: Malachite Green assay to measure cGAS activity (coupled enzymatic assay, phosphate detection). The settings on record: recombinant human cGAS (residues 161-522) 25 nM, 80 μM GTP, 100 nM ISD, 4 hour at RT, absorbance 620 nm. It is filed as biochemical. The protocol: Malachite Green Assay to Measure cGAS Activity Compounds were tested for cGAS inhibition in a coupled enzymatic assay based on Phosphate detection by Malachite Green. Final assay conditions were 20 mM TRIS pH 7.5 (Applichem), 5 mM MgCl2 (Sigma) and 0.01% BSA (Sigma) supplemented with […] (Sigma), 80 μM GTP (Sigma) and 100 nM Interferon Stimulating DNA (ISD) (Microsynth). Recombinantly expressed purified human cGAS (residues 161-522) was used at 25 nM. All compounds were prepared as 10 mM stock solutions in DMSO and a 16 pt dilution series in DMSO with a dilution factor of 2.5 was prepared. 1 μL of DMSO dilution series was transferred to 32.3 μL reaction buffer, mixed by pipetting up/down, spun for 1 minute at 3000 rpm and was visually inspected for precipitation. 5 μL of 3-fold enzyme stock solution were transferred to an empty 384-well Black/Clear Flat Bottom Polystyrene NBS (Corning) rows 3-24. Rows 1-2 were filled with assay buffer. Plates were spun 10 seconds at 1000 rpm (164×g). 5 μL of compound intermediate dilution was added and mixed by pipetting up/down to rows 3-24. Rows 1-2 were filled with 3.1% DMSO assay buffer. Plates were spun 10 seconds at 1000 rpm (164×g). 5 μL 3-fold Nucleotide/DNA mix was added to all wells to start the reaction. Plates were spun 10 seconds at 1000 rpm (164×g) and incubated for 4 hour at room temperature (RT) in the dark. 5 μL 4 U/mL PPase (Sigma) were added to all wells. Plates spun 10 seconds at 1000 rpm (164×g). 10 μL BioMol green Solution (Enzo Life Sciences) was added to all wells. Plates spun 10 seconds at 1000 rpm (164×g) and incubated 30 minutes at RT in the dark. Absorbance data was collected 620 nm on an EnVision Multilable Reader (Perkin Elmer) and the following measurement settings were used: excitation filter photometric was 620 nm; excitation from the top; measurement height was 1 mm; number of flashes was 30; number of flashes integrated was 1. All plates are checked for abnormalities and outliers in the Blank Control (no protein, row 1) and the Neutral Control (no compound, row 2) are excluded using the 3*SD rule. Data was normalized to 0 and 100% by Blank and Neutral Control and each curve was fitted and judged using the 4 parameter logistic equation to determine the IC50 for cGAS inhibition. Table 1 provides IC50 values (μM) for cGAS inhibition obtained for particular examples of the present invention as measured by the above-described assay.
Chain of human cGAS (residues 161-522) (Q8N884 161-522): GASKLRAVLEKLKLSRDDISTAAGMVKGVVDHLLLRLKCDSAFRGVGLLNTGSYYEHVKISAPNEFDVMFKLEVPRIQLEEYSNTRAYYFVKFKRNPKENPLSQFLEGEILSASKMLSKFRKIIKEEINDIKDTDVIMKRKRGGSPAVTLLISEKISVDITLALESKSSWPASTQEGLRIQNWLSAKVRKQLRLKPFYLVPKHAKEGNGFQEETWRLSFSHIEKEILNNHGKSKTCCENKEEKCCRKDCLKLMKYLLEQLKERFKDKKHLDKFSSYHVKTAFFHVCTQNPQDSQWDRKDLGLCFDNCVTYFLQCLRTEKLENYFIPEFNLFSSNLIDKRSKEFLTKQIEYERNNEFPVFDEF
Consider `Cc1ccc(-c2cc(C(=O)O)c3nc(CN4CCOCC4)[nH]c3c2)c(Cl)c1` [Example 28, 6-(2-Chloro-4-methylphenyl)-2-(morpholin-4-ylmethyl)-1H-benzimidazole-4-carboxylic acid], for which the IC50 (commonly the concentration that gives 50% inhibition) was 350 nM. For `Cc1ccc(-c2cc(C(=O)O)c3nc(CN(C)C)[nH]c3c2)c(Cl)c1` [Example 29, 6-(2-Chloro-4-methylphenyl)-2-[(dimethylamino)methyl]-1H-benzimidazole-4-carboxylic acid] the value was 590 nM.

For `Cc1ccc(-c2cc(C(=O)O)c3nc(C(F)(F)F)[nH]c3c2)c(Cl)c1` [Example 30, 6-(2-Chloro-4-methylphenyl)-2-(trifluoromethyl)-1H-benzimidazole-4-carboxylic acid], the IC50 worked out at 3020 nM. As for `Cc1ccc(-c2cc(C(=O)O)c3nc(NCc4ccccc4)[nH]c3c2)c(Cl)c1` [Example 31, 2-(Benzylamino)-6-(2-chloro-4-methylphenyl)-1H-benzo[d]imidazole-4-carboxylic acid], the IC50 stood at 840 nM.

Take `Cc1ccc(-c2cc(C(=O)O)c3nc(C)[nH]c3c2)c(Cl)c1` [Example 32]: the IC50 amounted to 2410 nM.
